Biological target: T1, Solute carrier family 12 member 5 (Homo sapiens, UniProt Q9H2X9)
T1 sequence (Q9H2X9 whole entry): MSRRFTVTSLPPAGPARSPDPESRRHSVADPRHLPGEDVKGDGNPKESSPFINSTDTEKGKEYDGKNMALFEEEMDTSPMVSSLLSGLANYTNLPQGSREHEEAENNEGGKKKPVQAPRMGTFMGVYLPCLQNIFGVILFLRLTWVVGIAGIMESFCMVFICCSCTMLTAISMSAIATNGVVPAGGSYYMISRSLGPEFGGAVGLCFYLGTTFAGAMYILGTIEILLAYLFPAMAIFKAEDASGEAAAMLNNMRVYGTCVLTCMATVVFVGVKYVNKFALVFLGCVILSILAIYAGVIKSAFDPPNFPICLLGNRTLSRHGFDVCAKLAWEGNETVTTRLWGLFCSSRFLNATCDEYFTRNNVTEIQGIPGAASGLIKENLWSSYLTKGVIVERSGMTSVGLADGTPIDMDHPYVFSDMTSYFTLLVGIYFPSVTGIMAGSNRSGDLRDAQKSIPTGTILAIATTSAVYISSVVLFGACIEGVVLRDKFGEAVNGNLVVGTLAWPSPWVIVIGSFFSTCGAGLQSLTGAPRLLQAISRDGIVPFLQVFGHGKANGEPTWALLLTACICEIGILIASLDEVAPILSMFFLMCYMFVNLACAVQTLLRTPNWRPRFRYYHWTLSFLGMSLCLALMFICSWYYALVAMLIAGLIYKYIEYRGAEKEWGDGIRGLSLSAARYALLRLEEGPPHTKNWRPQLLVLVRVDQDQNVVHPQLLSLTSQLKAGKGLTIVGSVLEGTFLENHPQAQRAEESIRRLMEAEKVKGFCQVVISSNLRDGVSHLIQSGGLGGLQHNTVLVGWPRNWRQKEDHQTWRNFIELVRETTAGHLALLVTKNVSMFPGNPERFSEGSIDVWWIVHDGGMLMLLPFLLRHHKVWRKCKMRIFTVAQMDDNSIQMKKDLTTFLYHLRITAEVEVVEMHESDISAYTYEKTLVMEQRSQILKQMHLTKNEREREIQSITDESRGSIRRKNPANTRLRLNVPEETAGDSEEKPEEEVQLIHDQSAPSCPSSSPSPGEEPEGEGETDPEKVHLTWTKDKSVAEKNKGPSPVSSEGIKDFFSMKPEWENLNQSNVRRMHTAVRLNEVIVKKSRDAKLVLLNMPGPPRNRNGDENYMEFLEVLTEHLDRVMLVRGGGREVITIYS
Experiment: concentration-response of KCC2 transport modulators – cell-based, HEK293 KCC2, FluoZin-2 fluorescence, dose response (AID 1736)

[1] = inactive by the depositor's call

| SMILES | EC50 | EC50 [1] |
| --- | --- | --- |
| CCc1ccc(C(=O)COC(=O)c2cc([N+](=O)[O-])ccc2NCCO)cc1 [2-(2-hydroxyethylamino)-5-nitro-benzoic acid [2-(4-ethylphenyl)-2-keto-ethyl] ester] | 17.2 µM | – |
| Cc1ccc(C(=O)O)cc1-c1ccc(C=C2NC(=O)N(c3ccccc3)C2=O)o1 [3-[5-[(E)-(2,5-dioxo-1-phenylimidazolidin-4-ylidene)methyl]furan-2-yl]-4-methylbenzoic acid] | 14.8 µM | – |
| O=C(COc1ccc2ccccc2c1)NN=Cc1ccccn1 [2-(2-naphthalenyloxy)-N-(2-pyridinylmethylideneamino)acetamide] | – | 330 µM |
| CC1CCN(C(=O)CSc2ccc(-c3ccc(F)cc3)nn2)CC1 [2-[6-(4-Fluoro-phenyl)-pyridazin-3-ylsulfanyl]-1-(4-methyl-piperidin-1-yl)-ethanone] | 2.66 µM | – |
| O=C(CCSCCc1ccccn1)Nc1ccc(Cc2ccncc2)cc1 [3-(2-pyridin-2-ylethylsulfanyl)-N-[4-(pyridin-4-ylmethyl)phenyl]propanamide] | 9.8 µM | – |
| Cc1onc(-c2ccccc2Cl)c1C(=O)NC(=S)Nc1ccc(C(C)C)cc1 [3-(2-chlorophenyl)-5-methyl-N-(p-cumenylthiocarbamoyl)isoxazole-4-carboxamide] | 0.271 µM | – |
| Cn1c(SCc2ccccc2Cl)nc2ccccc21 [2-[(2-chlorobenzyl)thio]-1-methyl-1H-benzimidazole] | 260 µM | – |
| CCC(c1nnc(SCc2nc3ccccc3s2)n1Cc1ccccc1)N(C)C (stereo unspecified) [1-[5-(1,3-benzothiazol-2-ylmethylsulfanyl)-4-(phenylmethyl)-1,2,4-triazol-3-yl]-N,N-dimethyl-propan-1-amine] | 14.7 µM | – |
| Cc1ccc(C(=O)CC=Nc2ccccc2C(N)=O)cc1 [2-[[(E)-3-(4-methylphenyl)-3-oxidanylidene-prop-1-enyl]amino]benzamide] | 3.36 µM | – |
| Cc1ccc(OCCC(=O)OCC(=O)N2c3ccccc3CC2C)cc1 (stereo unspecified) [3-(4-methylphenoxy)propanoic acid [2-(2-methyl-2,3-dihydroindol-1-yl)-2-oxoethyl] ester] | 3.85 µM | – |
| Cc1cc(NC(=O)CSc2ccc(-c3ccc(F)cc3)nn2)no1 [2-[6-(4-fluorophenyl)pyridazin-3-yl]sulfanyl-N-(5-methyl-1,2-oxazol-3-yl)acetamide] | 0.171 µM | – |
| Cc1ccc2oc(-c3ccc(C)c(NC(=S)NC(=O)c4cccs4)c3)nc2c1 [1-[2-Methyl-5-(5-methyl-benzooxazol-2-yl)-phenyl]-3-(thiophene-2-carbonyl)-thiourea] | 2.05 µM | – |
| O=C(COC(=O)c1cc([N+](=O)[O-])ccc1NCCO)c1ccccc1 [2-(2-hydroxyethylamino)-5-nitro-benzoic acid phenacyl ester] | 9.16 µM | – |
| O=C(O)CCN(Cc1ccccc1)S(=O)(=O)c1c(Cl)cccc1Cl [3-[(2,6-dichlorophenyl)sulfonyl-(phenylmethyl)amino]propanoic acid] | 59.2 µM | – |
| O=C(Nc1ccc(Cc2ccncc2)cc1)c1cccc([N+](=O)[O-])c1 [3-Nitro-N-(4-pyridin-4-ylmethyl-phenyl)-benzamide] | 15.3 µM | – |
| Cc1cccc(Nc2nnc(SCC(=O)c3ccc(Br)s3)s2)c1C [1-(5-bromanylthiophen-2-yl)-2-[[5-[(2,3-dimethylphenyl)amino]-1,3,4-thiadiazol-2-yl]sulfanyl]ethanone] | 1.41 µM | – |
| O=C(NN=Cc1ccccn1)c1ccccc1O [2-oxidanyl-N-(pyridin-2-ylmethylideneamino)benzamide] | 29.2 µM | – |
| O=c1c2ccccc2c(-c2nnc(S)o2)nn1Cc1ccccc1 [2-(phenylmethyl)-4-(2-sulfanylidene-3H-1,3,4-oxadiazol-5-yl)-1-phthalazinone] | 2.98 µM | – |
| S=C(NCc1cccnc1)Nc1ccc(Oc2ccccc2)cc1 [1-(4-phenoxyphenyl)-3-(3-pyridinylmethyl)thiourea] | 8.45 µM | – |
| O=C(O)CCc1cc(I)c(Oc2ccc(O)c(I)c2)c(I)c1 [3-[4-(4-hydroxy-3-iodophenoxy)-3,5-diiodophenyl]propanoic acid] | 5.39 µM | – |
| COc1ccc(S(=O)(=O)N2CCC(C(=O)N3CCc4ccccc4C3)CC2)cc1C [2-({1-[(4-methoxy-3-methylphenyl)sulfonyl]-4-piperidinyl}carbonyl)-1,2,3,4-tetrahydroisoquinoline] | 5.4 µM | – |

The next lines start with the values.

| EC50 | EC50 [1] | SMILES |
| --- | --- | --- |
| 24.6 µM | – | CNc1ccc(/C=C(\CCC(=O)O)c2nc3ccccc3s2)cc1[N+](=O)[O-] [MLS000394200] |
| 14.3 µM | – | O=C(OCc1ccccn1)c1ccc(COc2ccccc2Cl)o1 [5-(2-Chloro-phenoxymethyl)-furan-2-carboxylic acid pyridin-2-ylmethyl ester] |
| 1.9 µM | – | COc1ccccc1-n1cnc2cc(NS(=O)(=O)c3ccccc3)ccc21 [MLS000032522] |
| 8.56 µM | – | N#CC(C(=O)COc1ccccc1)c1nc2ccccc2s1 (stereo unspecified) [(2Z)-2-(3H-1,3-benzothiazol-2-ylidene)-3-keto-4-phenoxy-butyronitrile] |
| 5.64 µM | – | O=c1[nH]c2ccc(S(=O)(=O)N3CCN(c4ccccc4F)CC3)cc2s1 [6-{[4-(2-fluorophenyl)piperazin-1-yl]sulfonyl}-1,3-benzothiazol-2(3H)-one] |
| 2.84 µM | – | Sc1nnc(Nc2ccccc2)s1 [5-anilino-3H-1,3,4-thiadiazole-2-thione] |
| 0.991 µM | – | Sc1nnc(CCc2ccc(Cl)cc2)o1 [5-[2-(4-chlorophenyl)ethyl]-1,3,4-oxadiazole-2-thiol] |
| 6.28 µM | – | Cc1nc(SCc2ccc(F)cc2)c([N+](=O)[O-])[nH]1 [SMR000271028] |
| 10.3 µM | – | Cn1c(C(=O)NCCCN2CCN(c3ccccc3F)CC2)cc2c(=O)n(C)c3ccccc3c21 [MLS000118127] |
| 1.48 µM | – | Cc1c(N=C2Nc3cccc4cccc2c34)c(=O)n(-c2ccccc2)n1C [4-(2-benzo[cd]indolylamino)-1,5-dimethyl-2-phenyl-3-pyrazolone] |
| 3810 µM | – | O=C(C1CCCN(S(=O)(=O)c2cccc3nonc23)C1)N1CCC(Cc2ccccc2)CC1 (stereo unspecified) [(1-benzofurazan-4-ylsulfonyl-3-piperidyl)-(4-benzylpiperidino)methanone] |
| 0.287 µM | – | COc1ccc(-c2nnc(S/C(=C/c3ccc(Cl)cc3)C(=O)O)o2)cc1 [(E)-3-(4-chlorophenyl)-2-[[5-(4-methoxyphenyl)-1,3,4-oxadiazol-2-yl]sulfanyl]prop-2-enoic acid] |
| 20 µM | – | COc1ccccc1N1CCN(C(=S)NC(=O)/C=C/c2ccccc2)CC1 [(E)-N-[4-(2-Methoxy-phenyl)-piperazine-1-carbothioyl]-3-phenyl-acrylamide] |
| 0.304 µM | – | Sc1nnc(Cc2cccc3ccccc23)o1 [5-(1-naphthalenylmethyl)-3H-1,3,4-oxadiazole-2-thione] |
| 2.85 µM | – | O=C(NCC1CCCN(C(=O)c2cccnc2)C1)c1ccc(-c2ccccc2)cc1 (stereo unspecified) [4-phenyl-N-[(1-pyridin-3-ylcarbonylpiperidin-3-yl)methyl]benzamide] |
| 2690 µM | – | Cc1ccc(CSCCNC(=O)c2ccc(C)cc2)cc1 [4-methyl-N-[2-[(4-methylbenzyl)thio]ethyl]benzamide] |
| 5.92 µM | – | CCOc1cc(S(=O)(=O)NCc2ccccc2)ccc1F [3-ethoxy-4-fluoranyl-N-(phenylmethyl)benzenesulfonamide] |
| 129 µM | – | CC1Cc2ccccc2N1C(=O)/C=C/c1cccc(F)c1 (stereo unspecified) [(E)-3-(3-fluorophenyl)-1-(2-methyl-2,3-dihydroindol-1-yl)-2-propen-1-one] |
| 1.49 µM | – | COc1ccc(S(=O)(=O)N(C)CC(=O)N2CCN(Cc3ccccc3)CC2)cc1C [4-methoxy-N,3-dimethyl-N-[2-oxidanylidene-2-[4-(phenylmethyl)piperazin-1-yl]ethyl]benzenesulfonamide] |
| 15.5 µM | – | COc1cccc(C=c2sc(=CC(=O)c3ccc(C)cc3)[nH]c2=O)c1OC [5-[(2,3-dimethoxyphenyl)methylidene]-2-[2-(4-methylphenyl)-2-oxidanylidene-ethylidene]-1,3-thiazolidin-4-one] |
| 98.9 µM | – | Oc1ccccc1CN=Nc1nc2ccccc2o1 [(6E)-6-[(1,3-benzoxazol-2-ylhydrazo)methylidene]-1-cyclohexa-2,4-dienone] |
| 5.57 µM | – | CS(=O)(=O)N(CC(=O)N1CCN(c2ccc(F)cc2)CC1)c1ccc(F)c(Cl)c1 [MLS000531433] |
| 6.56 µM | – | O=C(/C=C/c1ccco1)N1CCC(Cc2ccccc2)CC1 [(E)-1-(4-benzylpiperidin-1-yl)-3-(furan-2-yl)prop-2-en-1-one] |
| 174 µM | – | O=C(NCCc1csc(-c2ccccc2)n1)c1cccs1 [MLS000102716] |
| – | 3.68 µM | O=C(/C=C/c1cccc([N+](=O)[O-])c1)Nc1cccc(NC(=O)c2cccs2)c1 [MLS000574752] |

From BindingDB's records for doi:10.7270/Q2TX3CSC (Vanderbilt Screening Center for GPCRs, Ion Channels and …, 2009)
